Reference: publication PMC8552062, “Contributions of UDP-Glucuronosyltransferases to Human Hepatic and Intestinal Metabolism of Ticagrelor and Inhibition of UGTs and Cytochrome P450 Enzymes by Ticagrelor and its Glucuronidated Metabolite” (Frontiers in Pharmacology, 2021)

Tests used:
Assay type in all cases: in vitro ADME
CYP2C8 = target: T1, CYP2C8 (Homo sapiens, UniProt P10632); assay: CYP2C8 inhibition in HLM (amodiaquine N-deethylase); details: HLM 0.2 mg/ml
T1 construct: co-incubation ticagrelor-O-Glu with selective P450 probe substrates in HLM; tissue XenoTech LLC; host or cells: pooled human liver microsomes
T1 sequence (P10632 whole entry): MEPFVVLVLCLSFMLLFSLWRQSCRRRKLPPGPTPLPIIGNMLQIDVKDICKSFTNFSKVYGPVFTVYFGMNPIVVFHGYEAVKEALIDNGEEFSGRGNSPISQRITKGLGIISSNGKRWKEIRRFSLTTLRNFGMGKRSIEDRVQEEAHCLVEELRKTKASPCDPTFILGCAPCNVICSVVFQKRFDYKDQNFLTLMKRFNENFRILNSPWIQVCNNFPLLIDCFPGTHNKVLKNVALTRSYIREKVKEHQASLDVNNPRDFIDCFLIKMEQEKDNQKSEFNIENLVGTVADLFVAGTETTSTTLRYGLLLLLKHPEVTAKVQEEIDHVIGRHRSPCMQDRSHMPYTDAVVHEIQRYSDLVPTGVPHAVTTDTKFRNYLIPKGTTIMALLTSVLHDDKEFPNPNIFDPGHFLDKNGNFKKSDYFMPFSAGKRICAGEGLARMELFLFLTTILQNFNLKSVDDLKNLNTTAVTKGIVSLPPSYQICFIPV
Method: (§1) The potential inhibitory effects of ticagrelor-O-Glu on the activities of major CYPs, i.e., CYP2B6, CYP2C8, CYP2C9, CYP2C19, CYP2D6, and CYP3A4, were evaluated by co-incubation ticagrelor-O-Glu with selective P450 probe substrates in HLM. Each incubation mixture containing 0.2 mg/ml HLM, ticagrelor-O-Glu and respective substrate (the final substrate concentrations are close to or less than the Km values: 150 μM bupropion, 1.26 μM amodiaquine, 10 μM diclofenac, 20 μM mephenytoin, 20 μM dextromethorphan and 80 μM testosterone (in house data)) in potassium phosphate buffer (100 mM, pH 7.4) was pre-incubated at 37°C for 5 min. Then, NADPH (10 mM) was added to initiate the reaction. The final volume of the incubation mixture was 100 μl. After incubation at 37°C for specific time points, the reaction was terminated by the addition of 200 μl of ice-cold methanol solution with internal standards (diazepam and furafylline). […] The formation of respective metabolites was determined to reflect P450 isoform activities. The metabolites quantified for CYP2B6, CYP2C8, CYP2C9, CYP2C19, CYP2D6, and CYP3A4 were hydroxy bupropion, N-Desethyl amodiaquine, 4′-hydroxylation diclofenac, S-4-hydroxy mephenytoin, dextrorphan and 6β-hydroxy testosterone, respectively.
(§2) The percent inhibition relative to the control was calculated to indicate the UGTs or CYPs inhibition. […]

CYP2D6 = target: T2, CYP2D6 (Homo sapiens, UniProt P10635); assay: CYP2D6 inhibition in HLM (dextromethorphan O-demethylase); details: HLM 0.2 mg/ml
T2 construct: co-incubation ticagrelor-O-Glu with selective P450 probe substrates in HLM; tissue XenoTech LLC; host or cells: pooled human liver microsomes
T2 sequence (P10635 whole entry): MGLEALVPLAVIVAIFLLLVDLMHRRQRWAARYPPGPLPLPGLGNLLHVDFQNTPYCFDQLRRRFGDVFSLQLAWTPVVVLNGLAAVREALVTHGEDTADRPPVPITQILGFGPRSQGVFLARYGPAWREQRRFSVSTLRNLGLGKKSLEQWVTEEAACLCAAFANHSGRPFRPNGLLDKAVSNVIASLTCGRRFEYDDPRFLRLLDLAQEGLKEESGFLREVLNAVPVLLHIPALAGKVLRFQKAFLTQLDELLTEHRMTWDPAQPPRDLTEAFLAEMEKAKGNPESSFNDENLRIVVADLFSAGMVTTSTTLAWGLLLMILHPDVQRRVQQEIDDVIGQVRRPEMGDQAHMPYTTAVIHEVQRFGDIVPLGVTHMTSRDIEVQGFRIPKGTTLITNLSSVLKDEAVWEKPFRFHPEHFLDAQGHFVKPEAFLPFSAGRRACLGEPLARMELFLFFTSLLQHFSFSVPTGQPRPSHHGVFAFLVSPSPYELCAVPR
Method: as §1, §2

[1] = system: human intestinal microsomes (HIM); assay: Ticagrelor glucuronidation kinetics in pooled HIM
Method: (§3) Ticagrelor glucuronidation was investigated in an in vitro incubation system by using HLM, HIM, and recombinant human UGTs. The incubation system consisted of enzyme sources (HLM, HIM, or human recombinant UGTs), various concentrations of ticagrelor (dissolved in 50% methanol, 1% v/v, 1, 2, 5, 10, 20, 50, 100, 200, 500 μM of final concentration), alamethicin (50 μg/mg protein), 5 mM MgCl2, 100 mM tris-HCL buffer (pH 7.4), and 5 mM UDPGA in a total volume of 100 μl. Alamethicin is a pore-forming polypeptide used to activate UGTs in HLM and HIM ([Fisher et al., 2000]). Preliminary studies were conducted to determine the optimal protein concentrations and incubation times. Linear conditions of ticagrelor-O-Glu formation from ticagrelor, i.e., HLM, 0.2 mg of protein/ml and 60 min, HIM, 0.2 mg of protein/ml and 60 min, and recombinant human UGTs, 0.2 mg of protein/ml and 60 min were selected. The incubation mixture without UDPGA was placed on ice for 15 min to activate UGT by alamethicin. After pre-incubation for 5 min at 37°C, the reactions were started by the addition of UDPGA. After another 60 min of incubation at 37°C, the reaction was terminated by adding 100 μl of acetonitrile containing internal standard (diazepam). The mixture vortexed for 2 min and then centrifuged at 14,000 rpm for 10 min at 4°C. The resulting supernatant was injected into a liquid chromatography tandem mass spectrometry (LC-MS/MS, Applied Biosystems/MDS Sciex, Foster City, CA) system for the detection of ticagrelor-O-Glu.
Kinetic analyses were performed using the mean values of triplicate determinations with either pooled HLM, HIM, or recombinant human UGTs. All data were analyzed by nonlinear regression analysis using the GraphPad Prism 6 (GraphPad Software Inc., CA, United States). Michaelis-Menten kinetics (Eq. 1) or substrate inhibition kinetics (Eq. 2) ([Houston and Kenworthy, 2000]) were tested to determine the optimal model for describing the data. […] Intrinsic clearance (CLint) was calculated by dividing Vmax by Km.

UGT1A6 = target: T3, UGT1A6 (Homo sapiens, UniProt P19224); assay: Ticagrelor glucuronidation screen, recombinant human UGT1A6; set-up: purchased BD Gentest; host or cells: baculovirus-infected insect cells; details: 10 μM ticagrelor
T3 sequence (P19224 27-532): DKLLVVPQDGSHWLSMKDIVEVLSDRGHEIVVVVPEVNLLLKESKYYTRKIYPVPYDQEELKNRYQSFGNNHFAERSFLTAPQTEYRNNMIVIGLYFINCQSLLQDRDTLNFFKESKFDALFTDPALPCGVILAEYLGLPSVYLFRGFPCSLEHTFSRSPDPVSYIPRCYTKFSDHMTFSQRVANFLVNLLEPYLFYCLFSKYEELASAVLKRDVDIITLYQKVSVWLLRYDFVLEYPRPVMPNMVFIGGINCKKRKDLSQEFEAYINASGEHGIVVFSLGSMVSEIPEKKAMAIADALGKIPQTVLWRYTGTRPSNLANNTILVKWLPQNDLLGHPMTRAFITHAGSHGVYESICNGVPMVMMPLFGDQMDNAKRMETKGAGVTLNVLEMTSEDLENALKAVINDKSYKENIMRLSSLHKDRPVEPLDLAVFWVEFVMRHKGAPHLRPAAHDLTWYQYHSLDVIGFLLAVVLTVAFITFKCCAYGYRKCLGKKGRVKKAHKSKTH
Method: as §3, with “The resulting supernatant was injected into a liquid chromatography tandem mass spectrometry (LC-MS/MS, Applied Biosystems/MDS Sciex, Foster City, CA) system for the detection of ticagrelor-O-Glu.” left out

recombinant human UGT2B4 = target: T4, recombinant human UGT2B4 (Homo sapiens, UniProt P06133); assay: Ticagrelor glucuronidation screen, recombinant human UGT2B4; details: 10 μM ticagrelor
T4 construct: purchased BD Gentest; host or cells: baculovirus-infected insect cells
T4 sequence (P06133 24-528): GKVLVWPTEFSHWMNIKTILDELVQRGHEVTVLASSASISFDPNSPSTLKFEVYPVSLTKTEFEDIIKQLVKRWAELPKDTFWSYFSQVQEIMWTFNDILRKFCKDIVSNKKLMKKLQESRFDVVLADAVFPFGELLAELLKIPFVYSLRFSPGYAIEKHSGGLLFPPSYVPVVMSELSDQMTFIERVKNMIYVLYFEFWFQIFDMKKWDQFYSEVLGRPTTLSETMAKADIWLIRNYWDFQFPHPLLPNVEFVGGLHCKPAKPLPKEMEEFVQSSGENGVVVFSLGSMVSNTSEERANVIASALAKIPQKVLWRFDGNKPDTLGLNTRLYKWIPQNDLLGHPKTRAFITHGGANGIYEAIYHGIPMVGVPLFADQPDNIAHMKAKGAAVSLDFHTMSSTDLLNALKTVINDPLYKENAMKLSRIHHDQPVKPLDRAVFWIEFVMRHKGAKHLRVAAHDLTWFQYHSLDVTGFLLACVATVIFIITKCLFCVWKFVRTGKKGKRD
Method: as §3, with “The resulting supernatant was injected into a liquid chromatography tandem mass spectrometry (LC-MS/MS, Applied Biosystems/MDS Sciex, Foster City, CA) system for the detection of ticagrelor-O-Glu.” left out

| IC50 (CYP2C8) | IC50 (CYP2D6) | Km ([1]; pooled HIM 0.2 mg protein/ml, 60 min, substrate inhibition kinetics) | glucuronidation activity for ticagrelor (UGT1A6) | glucuronidation activity for ticagrelor (recombinant human UGT2B4) | SMILES | Ksi ([1]; pooled HIM) | Vmax ([1]; pooled HIM) |
| --- | --- | --- | --- | --- | --- | --- | --- |
| > 100 µM | > 100 µM |  |  |  | CCCSc1nc(N[C@@H]2C[C@H]2c2ccc(F)c(F)c2)c2nnn([C@@H]3C[C@H](OCCO[C@@H]4O[C@H](C(=O)O)[C@@H](O)[C@H](O)[C@H]4O)[C@@H](O)[C@H]3O)c2n1 [Ticagrelor-O-Glu, ticagrelor-O-glucuronide] |  |  |
|  |  | 2.52 µM | no glucuronidation activities | no glucuronidation activities | CCCSc1nc(N[C@@H]2C[C@H]2c2ccc(F)c(F)c2)c2nnn([C@@H]3C[C@H](OCCO)[C@@H](O)[C@H]3O)c2n1 [Ticagrelor] | 292.9 µM | 0.90 pmol·min^−1·mg protein^−1 |
